Data taken from ChEMBL document CHEMBL1201862, “PubChem BioAssay data set” (2004).
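Briefly, cells in 96-well plates were exposed to five compound concentrations for 48 h, and endpoints were estimated by linear interpolation. Abbreviation: GI50, concentration required for 50% inhibition of growth.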 Calls of active or inactive are those of the source. Cut-off read from the data, not from the text of the source: active = GI50 up to about 1.1 µM and inactive = higher.

Legend:
Assay in all cases: NCI-60 cell line screen, 48 h
786-0 = system: 786-0
A498 = system: A498
A549 = system: A549
ACHN = system: ACHN
BT-549 = system: BT-549
CAKI-1 = system: CAKI-1
CCRF-CEM = system: CCRF-CEM
COLO 205 = system: COLO 205
DU-145 = system: DU-145
EKVX = system: EKVX
HCC 2998 = system: HCC 2998
HCT-116 = system: HCT-116
HCT-15 = system: HCT-15
HL-60 = system: HL-60
HOP-62 = system: HOP-62
Hs-578T = system: Hs-578T
IGROV-1 = system: IGROV-1
K562 = system: K562
KM12 = system: KM12
LOX IMVI = system: LOX IMVI
M14 = system: M14
MCF7 = system: MCF7
MDA-MB-231 = system: MDA-MB-231
MDA-MB-435 = system: MDA-MB-435
MDA-N = system: MDA-N
MOLT-4 = system: MOLT-4
Malme-3M = system: Malme-3M
NCI-H226 = system: NCI-H226
NCI-H23 = system: NCI-H23
NCI-H460 = system: NCI-H460
NCI-H522 = system: NCI-H522
NCI/ADR-RES = system: NCI/ADR-RES
OVCAR-3 = system: OVCAR-3
OVCAR-4 = system: OVCAR-4
OVCAR-5 = system: OVCAR-5
OVCAR-8 = system: OVCAR-8
PC-3 = system: PC-3
RPMI-8226 = system: RPMI-8226
RXF 393 = system: RXF 393
SF-268 = system: SF-268
SF-295 = system: SF-295
SF-539 = system: SF-539
SK-MEL-28 = system: SK-MEL-28
SK-MEL-2 = system: SK-MEL-2
SK-MEL-5 = system: SK-MEL-5
SN12C = system: SN12C
SNB-19 = system: SNB-19
SNB-75 = system: SNB-75
SR = system: SR
SW-620 = system: SW-620
T47D = system: T47D
TK-10 = system: TK-10
U-251 = system: U-251
UACC-257 = system: UACC-257
UACC-62 = system: UACC-62
UO-31 = system: UO-31
HOP-92 = system: HOP-92
HT-29 = system: HT-29
SK-OV-3 = system: SK-OV-3

Measured: GI50

CCOC(=O)c1cc(C2(O)CCN(Cc3ccccc3)C2=O)c(-c2cc(C)no2)[nH]1 (configuration not stated)
inactive: 786-0 60.3 µM | A498 > 100 µM | A549 40.1 µM | ACHN 45.5 µM | BT-549 66.2 µM | CAKI-1 32.8 µM | CCRF-CEM 29 µM | COLO 205 56.8 µM | DU-145 88.9 µM | EKVX 41.4 µM | HCC 2998 92.9 µM | HCT-116 37.9 µM | HL-60 15.3 µM | HOP-62 64.7 µM | Hs-578T 34 µM | IGROV-1 46.7 µM | K562 27 µM | KM12 37.8 µM | LOX IMVI 29.5 µM | M14 55 µM | MCF7 47.4 µM | MDA-MB-231 29 µM | MDA-MB-435 36.7 µM | MDA-N 57.3 µM | MOLT-4 12.6 µM | Malme-3M > 100 µM | NCI-H226 55.7 µM | NCI-H23 73.3 µM | NCI-H460 32.4 µM | NCI-H522 15.4 µM | NCI/ADR-RES 38.5 µM | OVCAR-3 36.5 µM | OVCAR-4 30.3 µM | OVCAR-5 61.4 µM | OVCAR-8 37.3 µM | PC-3 42.4 µM | RPMI-8226 26.4 µM | RXF 393 13.3 µM | SF-268 > 100 µM | SF-295 25.6 µM | SF-539 89.7 µM | SK-MEL-28 59.6 µM | SK-MEL-2 48.8 µM | SK-MEL-5 40 µM | SN12C 69 µM | SNB-19 81.1 µM | SNB-75 26.6 µM | SR 27.3 µM | SW-620 47.1 µM | T47D 17.9 µM | TK-10 67.1 µM | U-251 44.7 µM | UACC-257 75.9 µM | UACC-62 47.8 µM | UO-31 32.1 µM
71.3 µM: HCT-15

CN(C)CCC(C#N)(c1ccccc1)c1ccccc1
> 100 µM: HCT-15
active: MOLT-4 0.102 µM
inactive: 786-0 > 100 µM | A498 71.3 µM | A549 > 100 µM | ACHN > 100 µM | BT-549 > 100 µM | CAKI-1 > 100 µM | COLO 205 45.2 µM | DU-145 > 100 µM | EKVX > 100 µM | HCC 2998 17.5 µM | HCT-116 72.6 µM | HL-60 6.62 µM | HOP-62 > 100 µM | HOP-92 12.3 µM | HT-29 33.7 µM | Hs-578T 93.5 µM | IGROV-1 55.1 µM | K562 4.06 µM | KM12 > 100 µM | M14 25.9 µM | MCF7 94.4 µM | MDA-MB-231 47.5 µM | MDA-MB-435 > 100 µM | MDA-N 45 µM | Malme-3M 35.1 µM | NCI-H226 > 100 µM | NCI-H23 > 100 µM | NCI-H460 > 100 µM | NCI-H522 96.6 µM | NCI/ADR-RES 93.5 µM | OVCAR-3 > 100 µM | OVCAR-4 > 100 µM | OVCAR-5 79.6 µM | OVCAR-8 96.2 µM | PC-3 87.3 µM | RPMI-8226 24.9 µM | RXF 393 40 µM | SF-268 > 100 µM | SF-295 90.6 µM | SF-539 > 100 µM | SK-MEL-28 23.1 µM | SK-MEL-2 > 100 µM | SK-MEL-5 24.7 µM | SK-OV-3 > 100 µM | SN12C 72.4 µM | SNB-19 > 100 µM | SNB-75 52.6 µM | SW-620 > 100 µM | T47D 97.9 µM | TK-10 60.1 µM | U-251 88.9 µM | UACC-257 24.4 µM | UACC-62 73.3 µM | UO-31 65.9 µM
